For the experiment, the species on record is Mus musculus. The experiment is described as follows: Analgesic activity in mouse by hot-plate method. The class given is functional. In general terms: Hot-plate and tail-flick tests time the reaction to a heat stimulus.
Consider `C[C@H]1C2Cc3ccc(O)cc3[C@@]1(C)CCN2C`, for which the “log(1/C)” value is given as 2.71.

Turning to `CC[C@@]12CCN(C)C(Cc3ccc(O)cc31)[C@H]2C`, the “log(1/C)” value is on record as 3.92.

Take `C[C@H]1C2Cc3ccc(OC(=O)c4cccnc4)cc3[C@@]1(C)CCN2CCc1ccccc1`: the “log(1/C)” value was 3.68.

For the molecule `COc1ccc2c(c1)[C@@]1(C)CCN(CCc3ccccc3)C(C2)[C@@H]1C`, the “log(1/C)” value stood at 2.66.

For the molecule `COc1ccc2c(c1)[C@@]1(c3ccccc3)CCN(C)C(C2)[C@H]1C`, the “log(1/C)” value came to 2.14.

Consider `COc1ccc2c(c1)[C@@]1(C)CCN(C)C(C2)[C@@H]1C`, for which the “log(1/C)” value worked out at 1.87.

On to `CC(C)=CCN1CC[C@]2(C)c3cc(O)ccc3CC1[C@H]2C`, for which the “log(1/C)” value amounted to 1.7.

On to `CC(C)=CCN1CC[C@]2(C)c3cc(O)ccc3CC1[C@@H]2C`, for which the “log(1/C)” value turned out to be 1.53.

As to `COc1ccc2c(c1)[C@@]1(C)CCN(C)C(C2)[C@@]1(C)O`, the “log(1/C)” value is recorded as 1.48.

Turning to `CCCCC(=O)Oc1ccc2c(c1)[C@@]1(c3ccccc3)CCN(C)C(C2)[C@H]1C`, the “log(1/C)” value came out at 2.78.

For `CC[C@@]12CCN(CCc3ccccc3)C(Cc3ccc(O)cc31)C2` (mixture of isomers), the “log(1/C)” value is 3.66.

Turning to `CC(=O)Oc1ccc2c(c1)[C@@]1(C)CCN(CCc3ccccc3)C(C2)[C@@H]1C` (mixture of isomers), the “log(1/C)” value amounted to 3.61.

Consider `CCC[C@@]12CCN(C)C(Cc3ccc(O)cc31)[C@H]2C` (mixture of isomers), for which the “log(1/C)” value was 3.45.

Take `C[C@@H]1C2CCN(CCc3ccccc3)C1Cc1ccc(O)cc12` (mixture of isomers): the “log(1/C)” value was 3.21.

For the molecule `CC[C@@H]1C2Cc3ccc(O)cc3[C@@]1(C)CCN2C` (mixture of isomers), the “log(1/C)” value stood at 3.07.

On to `C[C@@]12CCN(CCc3ccccc3)C(Cc3ccc(O)cc31)[C@@H]2O` (mixture of isomers), for which the “log(1/C)” value came out at 2.99.

In the case of `CCC[C@@]12CCN(CCc3ccccc3)C(Cc3ccc(O)cc31)[C@@H]2C` (mixture of isomers), the “log(1/C)” value is reported as 2.92.

With `CC[C@@]12CCN(C)C(Cc3ccc(OC(C)=O)cc31)[C@]2(C)OC(C)=O` (mixture of isomers), the “log(1/C)” value was found to be 2.82.

Turning to `CC[C@@]12CCN(C)C(Cc3ccc(O)cc31)[C@]2(C)OC(C)=O` (mixture of isomers), the “log(1/C)” value was 2.78.

Consider `CC(=O)Oc1ccc2c(c1)[C@@]1(C)CCN(C)C(C2)[C@@H]1C` (mixture of isomers), for which the “log(1/C)” value was determined as 2.72.

In the case of `CC(=O)Oc1ccc2c(c1)[C@@]1(C)CCN(C)C(C2)[C@]1(C)OC(C)=O` (mixture of isomers), the “log(1/C)” value is 2.66.

Take `CC[C@H]1C2Cc3ccc(O)cc3[C@@]1(CC)CCN2CCc1ccccc1` (mixture of isomers): the “log(1/C)” value is listed as 2.61.

As for `CC[C@@]12CCN(C)C(Cc3ccc(O)cc31)[C@@]2(C)O` (mixture of isomers), the “log(1/C)” value was 2.61.

For `C[C@H]1C2Cc3ccc(OC(=O)c4cccnc4)cc3[C@@]1(C)CCN2CC1CC1` (mixture of isomers), the “log(1/C)” value was 2.59.

`CC[C@@]12CCN(C)C(Cc3ccc(OC(C)=O)cc31)[C@@H]2OC(C)=O` (mixture of isomers): the “log(1/C)” value is reported as 2.53.

Regarding `CC(=O)Oc1ccc2c(c1)[C@@]1(C)CCN(CCC(=O)c3ccccc3)C(C2)[C@@H]1C` (mixture of isomers), the “log(1/C)” value is given as 2.49.

In the case of `CCC[C@@]12CCN(C)C(Cc3ccc(O)cc31)C2` (mixture of isomers), the “log(1/C)” value is 2.43.

Consider `CC[C@H]1C2Cc3ccc(OC(C)=O)cc3[C@@]1(CC)CCN2C` (mixture of isomers), for which the “log(1/C)” value was found to be 2.36.

Regarding `CN1CC[C@]2(C)c3cc(O)ccc3CC1[C@@]2(C)O` (mixture of isomers), the “log(1/C)” value stood at 2.15.

As to `CC[C@@]12CCN(C)C(Cc3ccc(O)cc31)[C@@H]2C` (mixture of isomers), the “log(1/C)” value was found to be 2.06.

Consider `C[C@]1(O)C2Cc3ccc(O)cc3[C@@]1(C)CCN2CCc1ccccc1` (mixture of isomers), for which the “log(1/C)” value is 2.05.

As for `CC(=O)Oc1ccc2c(c1)[C@@]1(C)CCN(C)C(C2)C1` (mixture of isomers), the “log(1/C)” value was determined as 1.98.

`C[C@H]1C2Cc3ccccc3[C@@]1(C)CCN2CCC(=O)c1ccccc1` (mixture of isomers): the “log(1/C)” value stood at 1.93.

On to `CN1CC[C@]2(C)c3cc(O)ccc3CC1[C@]2(C)O` (mixture of isomers), for which the “log(1/C)” value came to 1.89.

Take `CC[C@@]1(O)C2Cc3ccc(OC)cc3[C@@]1(C)CCN2C` (mixture of isomers): the “log(1/C)” value came out at 1.87.

As for `C[C@@H]1C2Cc3ccccc3[C@@]1(C)CCN2C` (mixture of isomers), the “log(1/C)” value is 1.82.

`CC[C@@H]1C2Cc3ccccc3[C@@]1(CC)CCN2C` (mixture of isomers): the “log(1/C)” value was 1.8.

As for `CCC[C@@]12CCN(C)C(Cc3ccccc31)[C@H]2C` (mixture of isomers), the “log(1/C)” value is listed as 1.76.

For the molecule `CC[C@@]12CCN(C)C(Cc3ccc(O)cc31)[C@H]2O` (mixture of isomers), the “log(1/C)” value was 1.67.

Take `COc1ccc2c(c1)[C@@]1(C)CCN(C)C(C2)[C@]1(C)O` (mixture of isomers): the “log(1/C)” value amounted to 1.65.

Consider `COc1ccc2c(c1)[C@@]1(C)CCN(C)C(C2)C1` (mixture of isomers), for which the “log(1/C)” value amounted to 1.64.

In the case of `COc1ccc2c(c1)[C@@]1(C)CCN(CCc3ccccc3)C(C2)[C@@H]1O` (mixture of isomers), the “log(1/C)” value turned out to be 1.58.

Turning to `CC(=O)Oc1ccc2c(c1)[C@H]1CCN(C)C(C2)C1` (mixture of isomers), the “log(1/C)” value came to 1.57.

Regarding `CC[C@@]12CCN(C)C(Cc3ccc(OC)cc31)[C@@H]2OC(C)=O` (mixture of isomers), the “log(1/C)” value turned out to be 1.48.

For the molecule `CCC[C@@]12CCN(C)C(Cc3ccccc31)[C@@H]2C` (mixture of isomers), the “log(1/C)” value came out at 1.42.

Turning to `CC(=O)O[C@H]1C2Cc3ccccc3[C@@]1(C)CCN2C` (mixture of isomers), the “log(1/C)” value stood at 1.37.

`CN1CC[C@@]2(C)CC1Cc1ccccc12` (mixture of isomers): the “log(1/C)” value is 1.33.

Take `c1ccc2c(c1)CC1C[C@@H]2CCN1` (mixture of isomers): the “log(1/C)” value was 1.31.

`CN1CC[C@H]2CC1Cc1ccccc12` (mixture of isomers): the “log(1/C)” value is given as 1.3.

Regarding `C[C@H]1C2Cc3ccccc3[C@@]1(C)CCN2C` (mixture of isomers), the “log(1/C)” value was 1.27.

With `C[C@@]12CCN(CCc3ccccc3)C(Cc3ccccc31)C2` (mixture of isomers), the “log(1/C)” value turned out to be 1.26.

Consider `CN1CC[C@]2(C)c3ccccc3CC1[C@]2(C)O` (mixture of isomers), for which the “log(1/C)” value worked out at 1.16.

For `COc1ccc2c(c1)[C@@]1(C)CCN(C)C(C2)[C@H]1O` (mixture of isomers), the “log(1/C)” value came to 1.14.

In the case of `CC[C@@]12CCN(C)C(Cc3ccc(OC)cc31)[C@@H]2O` (mixture of isomers), the “log(1/C)” value turned out to be 0.99.

For the molecule `CN1CC[C@]2(C)c3ccccc3CC1[C@@H]2O` (mixture of isomers), the “log(1/C)” value is on record as 0.97.

In the case of `CN1CC[C@]2(C)c3cc(O)ccc3CC1[C@@H]2O` (mixture of isomers), the “log(1/C)” value worked out at 0.9.

In the case of `C[C@@]12CCNC(Cc3ccc(O)cc31)[C@H]2O` (mixture of isomers), the “log(1/C)” value was 0.88.

In the case of `CN1CC[C@]2(C)c3ccccc3CC1[C@@]2(C)O` (mixture of isomers), the “log(1/C)” value worked out at 0.68.

For `C[C@H]1C2Cc3ccc(O)cc3[C@@]1(C)CCN2CCc1cccs1` (mixture of isomers), the “log(1/C)” value is 4.04.

With `CCC[C@@H]1C2Cc3ccc(O)cc3[C@@]1(CCC)CCN2C` (mixture of isomers), the “log(1/C)” value is reported as 2.88.

Take `CCCC[C@@]12CCN(C)C(Cc3ccc(O)cc31)C2` (mixture of isomers): the “log(1/C)” value is on record as 2.17.

For `CCC(=O)Oc1ccc2c(c1)[C@@]1(C)CCN(C)C(C2)C1` (mixture of isomers), the “log(1/C)” value worked out at 1.98.

On to `CCCCC[C@@]12CCN(C)C(Cc3ccc(O)cc31)C2` (mixture of isomers), for which the “log(1/C)” value amounted to 1.96.

Regarding `CCCC(=O)Oc1ccc2c(c1)[C@@]1(C)CCN(C)C(C2)C1` (mixture of isomers), the “log(1/C)” value came out at 1.92.

For the molecule `CC(=O)O[C@@]12CCN(C)C(Cc3ccccc31)C2` (mixture of isomers), the “log(1/C)” value came out at 1.64.

Consider `CN1CC[C@@H]2c3cc(O)ccc3CC1[C@H]2CO` (mixture of isomers), for which the “log(1/C)” value is on record as 1.62.

Regarding `CC[C@H]1C2Cc3ccc(OC(=O)c4cccnc4)cc3[C@@]1(CC)CCN2C` (mixture of isomers), the “log(1/C)” value was determined as 1.54.

With `CCCCCC[C@@]12CCN(C)C(Cc3ccc(O)cc31)[C@H]2CO` (mixture of isomers), the “log(1/C)” value was 1.53.

As to `CCC(=O)O[C@@]12CCN(C)C(Cc3ccccc31)C2` (mixture of isomers), the “log(1/C)” value stood at 1.43.

As to `C[C@H]1C2Cc3ccc(F)cc3[C@@]1(C)CCN2C` (mixture of isomers), the “log(1/C)” value worked out at 1.08.

In the case of `C[C@H]1C2Cc3ccc(Cl)cc3[C@@]1(C)CCN2C` (mixture of isomers), the “log(1/C)” value turned out to be 0.83.

Take `C[C@H]1C2Cc3ccccc3[C@@]1(O)CCN2C` (mixture of isomers): the “log(1/C)” value is 0.75.

Turning to `C[C@H]1[C@H]2Cc3ccc(O)cc3[C@@]1(C)CCN2CC1CC1` (racemic), the “log(1/C)” value is on record as 1.37.

Turning to `C[C@H]1C2Cc3ccc(O)cc3[C@@]1(C)CCN2CCc1ccccc1` (stereo in doubt; 2), the “log(1/C)” value is given as 3.83.

Take `CC[C@@H]1C2Cc3ccc(O)cc3[C@@]1(CC)CCN2C` (stereo in doubt; 6): the “log(1/C)” value is listed as 3.51.

As for `C[C@@H]1C2Cc3ccc(O)cc3[C@@]1(c1ccccc1)CCN2C` (stereo in doubt; 8), the “log(1/C)” value turned out to be 3.26.

For the molecule `C[C@@H]1C2Cc3ccc(O)cc3[C@@]1(C)CCN2C` (stereo in doubt; 9), the “log(1/C)” value is 3.22.

On to `CC[C@@]12CCN(C)C(Cc3ccc(O)cc31)C2` (stereo in doubt; 20), for which the “log(1/C)” value was determined as 2.62.
